Tests used:
[1] = test system: TBP/Q79-GFP-expressing SH-SY5Y cells; experiment: TBP/Q79-GFP SH-SY5Y neurite outgrowth assay (also with shRNA knockdown or AICAR); format: cell-based, Human; conditions: for increased neurite outgrowth: vs untreated
Procedure: (§1) On day 1, 2 × 10^4 of SH-SY5Y TBP/Q79-GFP cells were seeded on a 24-well plate with retinoic acid (10 μM; Sigma-Aldrich) added to induce neuronal differentiation. On day 2, the cells were treated with LM-031 or licochalcone A (100 nM) for 8 h and TBP/Q79-GFP expression was induced as described. On day 8, cells were stained with Hoechst 33342 (0.1 μg/mL) and the aggregation percentage and neurite outgrowth were assessed by high-content analysis as described. The morphologic differentiation of TBP/Q79-GFP-expressing cells was analyzed by using the Neurite Outgrowth Application Module (Molecular Devices).
(§2) To knockdown the expression of NRF2 and CREB in TBP/Q79-GFP SH-SY5Y cells, lentiviruses with short hairpin RNA (shRNA) targeting NRF2 (TRCN0000007558), CREB (TRCN0000226466), and a negative control scrambled (TRC2.Void) were obtained from the National RNAi Core Facility, Institute of Molecular Biology/Genomic Research Center, Academia Sinica, Taipei, Taiwan. On day 1, cells were plated on 6-well plates (8 × 10^5/well for protein analysis) or 24-well plates (2 × 10^4/well for neurite outgrowth analysis) in the presence of retinoic acid as described. On day 2, the cells were infected with lentivirus (multiplicity of infection: 3) in the presence of polybrene (8 μg/mL; Sigma-Aldrich) to increase infectivity. On day 3, the cells were pretreated with LM-031 or licochalcone A (100 nM) for 8 h; induction of TBP/Q79-GFP expression followed. On day 9, the cells were collected for NRF2 and CREB protein analysis or stained with Hoechst 33342 and analyzed for aggregation and neurite outgrowth as described.
(§3) AICAR (5-aminoimidazole-4-carboxamide 1-β-D-ribofuranoside) (Sigma-Aldrich), an analog of adenosine monophosphate (AMP), was used to stimulate AMP-dependent protein kinase (AMPK) activity. TBP/Q79-GFP SH-SY5Y cells were plated on 6-well or 24-well plates in the presence of retinoic acid as described. On day 2, the cells were pretreated with LM-031 or licochalcone A (100 nM) for 4 h; AICAR (0.1 mM) treatment and TBP/Q79-GFP induction followed. On day 8, the cells were collected for AMPKα and pAMPKα protein analysis or stained with Hoechst 33342 and analyzed for aggregation and neurite outgrowth as described.

[2] = test system: TBP/Q79-GFP-expressing SH-SY5Y cells; experiment: TBP/Q79-GFP SH-SY5Y aggregation assay (also with shRNA knockdown or AICAR); format: cell-based, Human; conditions: for aggregation / polyQ aggregation: SH-SY5Y cells; for reduction of aggregation: differentiated TBP/Q79-GFP SH-SY5Y cells, vs untreated
Procedure: as §1, §2, §3

[3] = test system: AMPKα, pAMPKα (T172); experiment: Western blot of AMPKα and pAMPKα in TBP/Q79-GFP SH-SY5Y cells; format: cell-based, Human; conditions: induced SH-SY5Y cells
Procedure: (§4) Total proteins from TBP/Q79-GFP SH-SY5Y cells were obtained using a lysis buffer containing 50 mM Tris-HCl (pH 8.0), 150 mM NaCl, 1 mM EDTA (pH 8.0), 1 mM EGTA (pH 8.0), 0.1% SDS, 0.5% sodium deoxycholate, 1% Triton X-100, and a protease inhibitor cocktail (Sigma-Aldrich). After quantitation using a protein assay kit (Bio-Rad, Hercules, CA, USA), proteins (20 μg) were separated on 10−12% SDS-polyacrylamide gel electrophoresis and blotted onto polyvinylidene difluoride (PVDF) membranes (Sigma-Aldrich) by reverse electrophoresis. After blocking, the membrane was probed with CREB (1 : 1000; Santa Cruz Biotechnology, Santa Cruz, CA, USA), pCREB (S133) (1 : 1000; Santa Cruz Biotechnology), BCL2 (1 : 500; BioVision, Milpitas, CA, USA), GADD45B (1 : 1000; Abcam, Cambridge, MA, USA), BAX (1 : 500; BioVision), NRF2 (1 : 500; Santa Cruz Biotechnology), AMPKα (1 : 1000; Cell Signaling, Danvers, MA, USA), pAMPKα (T172) (1 : 1000; Cell Signaling), GAPDH (1 : 1000) (MDBio Inc., Taipei, Taiwan), or β-actin (1 : 5000; Millipore, Billerica, MA, USA) primary antibody at 4°C overnight. The immune complexes were detected using a horseradish peroxidase-conjugated goat anti-mouse or goat anti-rabbit IgG antibody (1 : 10000; GeneTex, Irvive, CA, USA) and a chemiluminescent substrate (Millipore).
as §3

[4] = MTT cytotoxicity assay in uninduced TBP/Q79-GFP 293 cells; format: cell-based; conditions: human
Procedure: (§5) Compound cytotoxicity was assessed by colorimetric assay measuring cell metabolic activity. Briefly, TBP/Q79-GFP 293 and SH-SY5Y cells were seeded on a 48-well plate (5 × 10^4/well), grown for 20 h, and treated with licochalcone A or LM compounds (0.1–100 μM). After one day, cell viability was measured based on reduction of 3,(4,5-dimethylthiazol-2-yl)-2,5-diphenyltetrazolium bromide (MTT), and the absorbance of the insoluble purple formazan product at OD 570 nm was read by a FLx800 fluorescence microplate reader (Bio-Tek, Winooski, VT, USA).

[5] = MTT cytotoxicity assay in uninduced TBP/Q79-GFP SH-SY5Y cells; format: cell-based; conditions: human
Procedure: as §5

[6] = test system: NRF2; experiment: Western blot of NRF2 in TBP/Q79-GFP SH-SY5Y cells; format: cell-based, Human; conditions: 100 nM; for NRF2 protein level, uninduced = 100%: induced SH-SY5Y cells, untreated induced 72%; for NRF2 level, scrambled shRNA uninduced = 100%: scrambled shRNA-infected induced SH-SY5Y cells, untreated 54%
Procedure: as §4, §2

[7] = test system: GADD45B; experiment: Western blot of GADD45B in TBP/Q79-GFP SH-SY5Y cells; format: cell-based, Human; conditions: 100 nM, induced SH-SY5Y cells; untreated induced 66–70%
Procedure: as §4

[8] = test system: CREB, pCREB (S133); experiment: Western blot of CREB and pCREB in TBP/Q79-GFP SH-SY5Y cells; format: cell-based, Human; conditions: 100 nM; for pCREB/CREB (phosphor/total ratio), uninduced = 100%: induced SH-SY5Y cells, untreated induced 85%; for pCREB level, scrambled shRNA uninduced = 100%: scrambled shRNA-infected induced SH-SY5Y cells, untreated 81%
Procedure: as §4, §2

[9] = test system: BAX; experiment: Western blot of BAX in TBP/Q79-GFP SH-SY5Y cells; format: cell-based, Human; conditions: 100 nM, induced SH-SY5Y cells; untreated induced 156%
Procedure: as §4

[10] = test system: TBP/Q79-GFP-expressing 293 cells; experiment: TBP/Q79 293 aggregation assay (high-content analysis of GFP fluorescence); format: cell-based, Human
Procedure: GFP fluorescence was evaluated to reflect TBP aggregation in TBP/Q79-GFP-expressing 293 cells. Briefly, cells were plated on 96-well (2 × 10^4/well) dishes, grown for 24 h and treated with different concentrations of licochalcone A or LM compounds (0.1 nM−100 μM) or a positive control suberoylanilide hydroxamic acid (SAHA, 100 nM) (Cayman Chemical, Ann Arbor, MI, USA). After 8 h, doxycycline (10 μg/mL) was added to the cells for 6 days to induce TBP/Q79-GFP expression. In addition, oxaliplatin (5 μM) (Sigma-Aldrich, St Louis, MO, USA) was included for TBP/Q79-GFP aggregate accumulation via blocking cell-cycle progression. On the eighth day, the cells were stained with Hoechst 33342 (0.1 μg/mL; Sigma-Aldrich) for 30 min, and cell images were automatically recorded (excitation/emission wavelengths of 482/536 nm for GFP and 377/447 nm for Hoechst 33342) by using an ImageXpress Micro Confocal High-Content Imaging System (Molecular Devices, Sunnyvale, CA, USA). Aggregation was determined by a Transfluor technology based on GFP fluorescence intensity. To quantify aggregation, the relative aggregation level in untreated cells was set as 100%. Aggregation was measured in wells containing ≥80% viable cells.

[11] = 100 nM compound + AICAR 0.1 mM, SH-SY5Y cells, AICAR alone 17.2 μm
[12] = 100 nM, NRF2 shRNA, SH-SY5Y cells
[13] = 100 nM, differentiated TBP/Q79-GFP SH-SY5Y cells
[14] = 100 nM, differentiated TBP/Q79-GFP SH-SY5Y cells, untreated 21.1 μm
[15] = 100 nM, no AICAR, SH-SY5Y cells, no treatment 19.6 μm
[16] = 100 nM, scrambled shRNA, SH-SY5Y cells, no treatment 21.6 μm
[17] = 100 nM compound + AICAR 0.1 mM, AICAR alone 5.2%
[18] = 100 nM, no AICAR, no treatment 4.6%

Compound: NC(=O)c1ncn([C@@H]2O[C@H](CO)[C@@H](O)[C@H]2O)c1N [AICAR, 5-aminoimidazole-4-carboxamide 1-β-D-ribofuranoside]
- neurite outgrowth ([1]; AICAR 0.1 mM alone, SH-SY5Y cells, no treatment 19.6 μm): 17.2 μm
- aggregation ([2]; AICAR 0.1 mM alone, no treatment 4.6%): 5.2%
- pAMPKα level, uninduced = 100% ([3]; AICAR 0.1 mM alone, without AICAR 134%): 160%

Compound: COc1ccc(C(=O)/C=C/c2cc(Br)ccc2O)cc1 [LM-004]
- IC50 at 24 h [4]: 45 µM
- IC50 at 24 h [5]: 54 µM

Compound: COc1ccc(O)c(/C=C/C(=O)c2ccccc2)c1 [LM-006]
- IC50 at 24 h [4]: 47 µM
- IC50 at 24 h [5]: 56 µM

Compound: Cc1ccc(/C=C/C(=O)c2c(O)c3ccccc3oc2=O)cc1 [LM-016]
- IC50 at 24 h [4]: > 100 µM
- IC50 at 24 h [5]: > 100 µM

Compound: COc1cccc(/C=C/C(=O)c2ccc(O)cc2)c1O [LM-026]
- IC50 at 24 h [4]: 53 µM
- IC50 at 24 h [5]: 58 µM

Compound: O=C(c1ccccc1)c1cc2c(O)cccc2oc1=O [LM-031, 3-benzoyl-5-hydroxy-2H-chromen-2-one]
- neurite outgrowth [1, 11]: 21.6 μm
- neurite outgrowth [1, 12]: 17.8–18.1 μm
- increased neurite outgrowth [1, 13]: 19−22%
- neurite outgrowth [1, 14]: 25.1–25.6 μm
- neurite outgrowth [1, 15]: 23.0–23.6 μm
- neurite outgrowth [1, 16]: 23.8–24.6 μm
- IC50 at 24 h [4]: > 100 µM
- NRF2 protein level, uninduced = 100% [6]: 96–100%
- NRF2 level, scrambled shRNA uninduced = 100% [6]: 84–93%
- GADD45B protein level, uninduced = 100% [7]: 104–105%
- polyQ aggregation [2, 17]: 4.0%
- aggregation ([2]; 100 nM, NRF2 shRNA): 5.5%
- reduction of aggregation ([2]; 100 nM): 18–20%
- polyQ aggregation [2, 18]: 3.6–3.7%
- pCREB/CREB (phosphor/total ratio), uninduced = 100% [8]: 110%
- pCREB level, scrambled shRNA uninduced = 100% [8]: 107–112%
- BAX protein level, uninduced = 100% [9]: 103%
- pAMPKα level, uninduced = 100% ([3]; 100 nM compound + AICAR 0.1 mM, AICAR alone 160%): 96%
- phosphor/total ratio of AMPKα, uninduced = 100% ([3]; 100 nM, untreated induced 170%): 130%
- pAMPKα level (phosphor/total ratio of AMPKα), uninduced = 100% ([3]; 100 nM, no AICAR, untreated induced 134%): 110%
- TBP/Q79-GFP aggregation (untreated cells = 100%) ([10]; 10 nM–10 μM, significantly better than SAHA 100 nM (82%)): 74–76%
- IC50 at 24 h [5]: > 100 µM

Compound: O=C(CCCCCCC(=O)Nc1ccccc1)NO [SAHA, suberoylanilide hydroxamic acid, reference compound]
- TBP/Q79-GFP aggregation (untreated cells = 100%) ([10]; 100 nM, Dox + oxaliplatin 6 days): 82%

Compound: C=CC(C)(C)c1cc(/C=C/C(=O)c2ccc(O)cc2)c(OC)cc1O [licochalcone A, reference compound]
- neurite outgrowth [1, 11]: 18.4 μm
- neurite outgrowth [1, 12]: 17.8–18.1 μm
- increased neurite outgrowth [1, 13]: 19−22%
- neurite outgrowth [1, 14]: 25.1–25.6 μm
- neurite outgrowth [1, 15]: 23.0–23.6 μm
- neurite outgrowth [1, 16]: 23.8–24.6 μm
- IC50 at 24 h ([4]; uninduced TBP/Q79-GFP 293 cells, MTT, compounds 0.1−100 μM for 24 h, read-out: IC50 cytotoxicity): 53 µM
- NRF2 protein level, uninduced = 100% [6]: 96–100%
- NRF2 level, scrambled shRNA uninduced = 100% [6]: 84–93%
- GADD45B protein level, uninduced = 100% [7]: 104–105%
- polyQ aggregation [2, 17]: 4.9%
- aggregation ([2]; 100 nM, NRF2 shRNA): 5.5%
- reduction of aggregation ([2]; 100 nM): 18–20%
- polyQ aggregation [2, 18]: 3.6–3.7%
- pCREB/CREB (phosphor/total ratio), uninduced = 100% [8]: 110%
- pCREB level, scrambled shRNA uninduced = 100% [8]: 107–112%
- BAX protein level, uninduced = 100% [9]: 103%
- IC50 at 24 h ([5]; uninduced TBP/Q79-GFP SH-SY5Y cells, MTT, compounds 0.1−100 μM for 24 h, read-out: IC50 cytotoxicity): 57 µM

From publication PMC7195640, “New Synthetic 3-Benzoyl-5-Hydroxy-2H-Chromen-2-One (LM-031) Inhibits Polyglutamine Aggregation and Promotes Neurite Outgrowth through Enhancement of CREB, NRF2, and Reduction of AMPKα in SCA17 Cell Models” (Oxidative Medicine and Cellular Longevity, 2020)
